From PMC4027965 (Molecular imaging, 2013)

Assay: in vivo
Conditions: female, athymic nude, mouse, liver, iv, 3.7 MBq (100 uCi), total radioactivity

**Q.** With `N=C(N)NCCC[C@@H]1NC(=O)[C@H](CSC2CC(=O)N(CCNC(=O)CCCC(=O)Nc3ccc(C4=NNC(c5ccccn5)=C5CCC(OCCF)CCCC45)nc3)C2=O)NC(=O)[C@@H](Cc2ccc(O)cc2)NC(=O)[C@H](CC(=O)O)NC(=O)CNC1=O` (stereo partly shown) [^18F-TTM-RGD] as the compound, how does the tissue uptake at 2 h read?
**A.** The tissue uptake at 2 h was 2.35 ± 0.24 %ID/g.
